The text below walks through data of US20220089600A1, “TGFß INHIBITOR AND PRODRUGS” (FUNDACIÓ INSTITUT DE RECERCA BIOMÈDICA (IRB BARCELONA), priority 2018, published 2022).

One data set concerns the target T1, ACVR2B (Homo sapiens, UniProt Q13705).
T1 construct: purchased Eurofins (KINOMEscan service)
In words: KINOMEscan affinity, competition binding. The method, then:
(§1) The affinity, measured as Kd (dissociation constants), of the compound of formula I for the ALK family was determined by using the KINOMEscan™ Technology from Eurofins. Selectivity in front of ALK1 (ACVRL1), ALK2 (ACVR1), ALK3 (BMPR1A), ALK4 (ACVR1B), ALK6 (BMPR1B), ACVR2B and TGFβR2 was determined.
(§2) The KINOMEscan screening platform employs an active-site directed competition binding assay to quantitatively measure interactions between test compounds and kinases.
(§3) The assay is performed by combining three components: DNA-tagged kinase; immobilized ligand; and a test compound. The ability of the test compound to compete with the immobilized ligand is measured via quantitative PCR of the DNA tag.
(§4) Test compounds were prepared as 111× stocks in 100% DMSO. Kds were determined using an 11-point 3-fold compound dilution series with three DMSO control points being the top concentration 30 μM. […] The compounds were then diluted directly into the assays such that the final concentration of DMSO was 0.9%. All reactions performed in polypropylene 384-well plate. Each was a final volume of 0.02 ml. […] The beads were then re-suspended in elution buffer (1×PBS, 0.05% Tween 20, 0.5 μM non-biotinylated affinity ligand) and incubated at room temperature with shaking for 30 minutes. The kinase concentration in the eluates was measured by qPCR.
(§5) Compounds that bind the kinase active site and directly (sterically) or indirectly (allosterically) prevent kinase binding to the immobilized ligand, will reduce the amount of kinase captured on the solid support. […] Dissociation constants (Kds) for test compound-kinase interactions are calculated by measuring the amount of kinase captured on the solid support as a function of the test compound concentration.

Another data set addresses T2, ALK1 (ACVRL1) (Homo sapiens, UniProt P37023).
T2 construct: purchased Eurofins (KINOMEscan service)
In words: KINOMEscan affinity, competition binding. As for the experimental part:
as §1, §2, §3, §4, §5

In a further data set the target is T3, ALK2 (ACVR1) (Homo sapiens, UniProt Q04771).
T3 construct: purchased Eurofins (KINOMEscan service)
T3 sequence (Q04771 21-509): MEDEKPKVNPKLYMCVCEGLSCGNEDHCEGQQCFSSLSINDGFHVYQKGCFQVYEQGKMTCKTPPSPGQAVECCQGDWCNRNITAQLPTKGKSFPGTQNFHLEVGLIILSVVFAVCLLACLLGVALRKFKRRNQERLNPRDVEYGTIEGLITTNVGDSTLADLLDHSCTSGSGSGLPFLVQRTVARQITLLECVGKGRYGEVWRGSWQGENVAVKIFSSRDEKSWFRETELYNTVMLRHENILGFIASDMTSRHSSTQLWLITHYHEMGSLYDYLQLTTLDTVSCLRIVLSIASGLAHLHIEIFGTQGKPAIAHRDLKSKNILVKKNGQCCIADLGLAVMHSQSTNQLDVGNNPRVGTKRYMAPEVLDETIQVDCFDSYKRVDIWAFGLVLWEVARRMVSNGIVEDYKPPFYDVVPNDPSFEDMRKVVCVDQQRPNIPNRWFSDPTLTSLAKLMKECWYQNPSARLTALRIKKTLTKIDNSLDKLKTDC
As to the kind of experiment: KINOMEscan affinity, competition binding. As for the experimental part:
as §1, §2, §3, §4, §5

The next data set addresses T4, ALK3 (BMPR1A) (Homo sapiens, UniProt P36894).
T4 construct: purchased Eurofins (KINOMEscan service)
As to the kind of experiment: KINOMEscan affinity, competition binding. As for the experimental part: as §1, §2, §3, §4, §5

In another data set the target is T5, ALK6 (BMPR1B) (Homo sapiens, UniProt O00238).
T5 construct: purchased Eurofins (KINOMEscan service)
T5 sequence (O00238 14-502): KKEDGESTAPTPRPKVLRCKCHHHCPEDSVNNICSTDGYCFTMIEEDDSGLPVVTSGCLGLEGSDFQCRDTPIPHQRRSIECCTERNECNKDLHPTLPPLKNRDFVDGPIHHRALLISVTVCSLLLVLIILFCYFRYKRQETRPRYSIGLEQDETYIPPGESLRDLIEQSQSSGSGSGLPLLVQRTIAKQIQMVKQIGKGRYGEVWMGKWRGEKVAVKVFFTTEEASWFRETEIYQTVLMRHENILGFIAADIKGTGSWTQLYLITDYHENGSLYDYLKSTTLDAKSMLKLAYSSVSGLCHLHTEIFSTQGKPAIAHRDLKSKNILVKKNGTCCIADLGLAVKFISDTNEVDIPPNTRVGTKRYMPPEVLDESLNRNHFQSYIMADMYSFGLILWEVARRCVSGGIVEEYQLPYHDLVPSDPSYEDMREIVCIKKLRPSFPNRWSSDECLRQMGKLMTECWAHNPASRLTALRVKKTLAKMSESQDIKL
As to the kind of experiment: KINOMEscan affinity, competition binding. The method, then: as §1, §2, §3, §4, §5

For another data set, the system named is HEK293T cells. In words: In vitro cytotoxicity, XTT assay. The data set is classed as cell-based. The conditions noted are these: 24h. The method, then:
To assess the toxicity of the compound of formula I in vitro, HEK293T cells were seeded in 96-well plates and treated for 24h with indicated compounds. DMSO was used as a control.
Cell viability was assessed by the XTT assay (Biological Industries), according to the manufacturer's instructions, incubating for 4h prior to measurement.
On the technique in general: Tetrazolium dyes change colour on reduction, which living cells bring about.

Each structure is given as a SMILES string.

T1 sequence (Q13705 19-512): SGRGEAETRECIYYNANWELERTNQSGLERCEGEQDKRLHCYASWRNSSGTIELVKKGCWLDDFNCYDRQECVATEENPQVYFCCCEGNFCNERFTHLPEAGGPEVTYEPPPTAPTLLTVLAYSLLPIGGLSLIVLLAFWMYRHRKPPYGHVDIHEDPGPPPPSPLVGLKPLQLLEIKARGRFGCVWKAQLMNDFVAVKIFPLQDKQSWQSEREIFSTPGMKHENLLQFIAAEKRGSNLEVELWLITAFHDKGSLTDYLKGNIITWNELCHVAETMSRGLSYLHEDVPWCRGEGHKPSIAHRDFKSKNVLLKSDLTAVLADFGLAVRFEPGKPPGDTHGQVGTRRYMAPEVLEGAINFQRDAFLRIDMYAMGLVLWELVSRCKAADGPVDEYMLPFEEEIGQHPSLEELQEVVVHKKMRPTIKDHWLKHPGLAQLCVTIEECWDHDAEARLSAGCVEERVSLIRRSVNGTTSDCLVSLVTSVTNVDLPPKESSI
T4 sequence (P36894 24-532): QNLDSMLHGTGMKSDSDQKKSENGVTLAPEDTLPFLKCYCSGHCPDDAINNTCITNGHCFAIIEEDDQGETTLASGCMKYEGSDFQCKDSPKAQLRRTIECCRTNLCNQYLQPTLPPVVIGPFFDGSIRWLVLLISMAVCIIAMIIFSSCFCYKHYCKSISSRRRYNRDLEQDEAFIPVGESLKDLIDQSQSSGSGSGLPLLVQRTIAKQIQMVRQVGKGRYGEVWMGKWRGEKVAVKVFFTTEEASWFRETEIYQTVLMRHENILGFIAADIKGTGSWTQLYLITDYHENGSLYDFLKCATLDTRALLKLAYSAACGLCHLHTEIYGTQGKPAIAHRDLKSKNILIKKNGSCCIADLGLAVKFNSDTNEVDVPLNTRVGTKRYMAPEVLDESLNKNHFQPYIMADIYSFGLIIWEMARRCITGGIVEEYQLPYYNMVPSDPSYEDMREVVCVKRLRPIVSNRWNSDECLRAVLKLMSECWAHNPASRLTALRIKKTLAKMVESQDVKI
T2 sequence (P37023 22-503): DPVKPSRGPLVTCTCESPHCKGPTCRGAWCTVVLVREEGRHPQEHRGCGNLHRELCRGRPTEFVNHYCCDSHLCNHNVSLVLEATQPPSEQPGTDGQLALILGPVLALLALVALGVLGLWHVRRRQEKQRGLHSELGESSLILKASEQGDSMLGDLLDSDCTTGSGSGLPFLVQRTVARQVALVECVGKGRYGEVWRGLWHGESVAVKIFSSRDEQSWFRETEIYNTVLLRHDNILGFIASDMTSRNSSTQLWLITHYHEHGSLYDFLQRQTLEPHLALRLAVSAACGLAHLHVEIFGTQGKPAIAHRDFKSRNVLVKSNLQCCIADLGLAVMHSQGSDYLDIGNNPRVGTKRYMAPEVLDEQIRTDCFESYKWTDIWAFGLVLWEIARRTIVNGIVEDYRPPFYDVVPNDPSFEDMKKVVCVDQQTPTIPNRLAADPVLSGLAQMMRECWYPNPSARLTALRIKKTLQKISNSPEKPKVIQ

As to `Cc1cccc(-c2nn3c(c2-c2ccnc4ccc(O)cc24)CCC3)n1` [compound of formula I, 4-(2-(6-methylpyridin-2-yl)-5,6-dihydro-4H-pyrrolo[1,2-b]pyrazol-3-yl)quinolin-6-ol], the Selectivity improvement at ACVR2B ((I) versus Galunisertib) was 1.2; at ALK1 (ACVRL1) ((I) versus Galunisertib) it was 3.8; at ALK2 (ACVR1) ((I) versus Galunisertib) it was 1.8; at ALK3 (BMPR1A) ((I) versus Galunisertib), 3.5; on ALK6 (BMPR1B) ((I) versus Galunisertib), 2.9. For the same molecule, the “Selectivity against ALK5” value on ACVR2B (ACVR2B versus ALK5) amounted to 5.0; on ALK1 (ACVRL1) (ALK1 versus ALK5) it was 550; at ALK2 (ACVR1) (ALK2 versus ALK5), 375; at ALK3 (BMPR1A) (ALK3 versus ALK5), 345; at ALK6 (BMPR1B) (ALK6 versus ALK5), 8.0. In addition, the “selectivity for ALK5 against ACVR2B” value on ACVR2B (KINOMEscan) was determined as 5 fold. Also, the “selectivity for ALK5 against ALK1” value at ALK1 (ACVRL1) (KINOMEscan) is on record as “greater than 300 fold”. Further, the “selectivity for ALK5 against ALK2” value on ALK2 (ACVR1) (KINOMEscan) is recorded as “greater than 300 fold”. Also, on ALK3 (BMPR1A) (KINOMEscan), the “selectivity for ALK5 against ALK3” value was “greater than 300 fold”. Further, the “selectivity for ALK5 against ALK6” value on ALK6 (BMPR1B) (KINOMEscan) is reported as 8 fold. In addition, the Cell viability with HEK293T cells (30 μM) is recorded as 93%; in the data set with HEK293T cells (100 μM), 64%. For the same molecule, the “toxicity screens including genotoxicity” value in the data set “Genotoxicity screens” is “cleared”.
